Reference: patent US7169966B2, “Salicylic acid-binding protein encoding nucleic acid, SABP2, and methods of use thereof” (Boyce Thompson Institute for Plant Research, Inc., priority 2001, dated 2007)
pKd: −log10 of the molar value.

What was measured:
[1] = system: PR genes; conditions: for induction of PR genes or enhanced disease resistance; cited from earlier work
[2] = molecular target: T1, AtSB2L9 (Arabidopsis thaliana, UniProt O23171); test: [3H] salicylic acid-binding assay with unlabeled competitors, Arabidopsis homolog produced in E. coli; conditions: 1 mM unlabeled competitor; protein produced in E. coli; no competitor = 16486 dpm
T1 construct: made in house; host or cells: E. coli
T1 sequence (O23171 1-256): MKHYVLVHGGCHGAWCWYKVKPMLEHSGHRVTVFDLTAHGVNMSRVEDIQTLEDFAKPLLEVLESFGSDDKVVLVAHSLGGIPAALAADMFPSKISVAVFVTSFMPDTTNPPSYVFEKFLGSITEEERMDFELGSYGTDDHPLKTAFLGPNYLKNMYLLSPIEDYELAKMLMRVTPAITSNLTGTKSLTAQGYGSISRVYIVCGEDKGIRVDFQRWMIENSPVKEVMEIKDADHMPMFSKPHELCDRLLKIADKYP
Procedure: (§1) [^3H] Salicylic acid-binding assay: The protein extracts/fractions were mixed with 0.1 μM [^3H]-SA (23.6 Ci/mmol) (custom synthesized by NEN Life Science Products) in Buffer A to bring the total volume of the reaction mixture to 150 μl. The extracts were then incubated on ice for 60 minutes. Spin columns were prepared by packing Sephadex G-25 fine (Pharmacia) equilibrated with Buffer A into 1 ml disposable syringe barrels. The G-25 was packed to 1 ml and equilibrated by centrifuging at 1000 g for 4 minutes in a H-1000B rotor (Sorvall) at 4° C. The entire binding mixture was loaded onto the column and centrifuged under similar conditions. Bound [^3H]-SA which is present in the flow through, was mixed with 4 ml scintillation cocktail (Ecolite, ICN) and measured in a liquid scintillation counter. Appropriate controls were also assayed.
(§2) To rigorously establish that the 28 KDa protein from plant extract was SABP2, the cloned cDNA was expressed in E. coli as His6-tagged fusion protein and the recombinant protein was purified on a Ni column and tested for SA-binding activity (Table IV).

[3] = molecular target: T2, AtSB2L1 (Arabidopsis thaliana, UniProt Q8S8S9); test: as above; conditions: 1 mM unlabeled competitor; protein produced in E. coli; no competitor = 70 dpm
T2 construct: made in house
T2 sequence (Q8S8S9 1-263): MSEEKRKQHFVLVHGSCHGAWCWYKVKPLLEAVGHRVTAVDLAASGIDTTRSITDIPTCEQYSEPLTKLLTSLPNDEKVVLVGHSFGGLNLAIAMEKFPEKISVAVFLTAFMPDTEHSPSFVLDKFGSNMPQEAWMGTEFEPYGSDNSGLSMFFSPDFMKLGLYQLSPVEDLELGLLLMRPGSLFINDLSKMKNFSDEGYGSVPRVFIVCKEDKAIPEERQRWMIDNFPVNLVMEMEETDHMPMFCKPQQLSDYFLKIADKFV
Procedure: as §1, §2

[4] = molecular target: T3, AtSB2L5 (Arabidopsis thaliana, UniProt Q9LFT6); test: as above; conditions: 1 mM unlabeled competitor; protein produced in E. coli; no competitor = 12927 dpm
T3 construct: made in house; host or cells: E. coli
T3 sequence (Q9LFT6 1-258): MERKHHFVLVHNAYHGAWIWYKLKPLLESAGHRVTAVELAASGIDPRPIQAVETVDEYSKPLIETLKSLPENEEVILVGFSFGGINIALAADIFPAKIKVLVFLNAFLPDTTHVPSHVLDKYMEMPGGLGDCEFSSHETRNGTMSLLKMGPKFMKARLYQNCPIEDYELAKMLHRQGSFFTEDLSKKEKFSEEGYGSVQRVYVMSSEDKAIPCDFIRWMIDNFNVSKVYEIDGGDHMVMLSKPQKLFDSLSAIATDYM
Procedure: as §1, §2

[5] = molecular target: T4, SABP2 (Nicotiana tabacum, UniProt Q6RYA0); test: [3H] salicylic acid-binding assay with unlabeled competitors, recombinant His6-SABP2 produced in E. coli; parameters: Full-length tobacco SABP2 was PCR amplified; His6 (N); made in house; host or cells: E. coli BL21 (DE3), vector pET28a; species or system tobacco (Nicotiana tabacum); conditions: for Bound [^3H] SA SABP2: 1 mM unlabeled competitor, protein produced in E. coli, no competitor = 140206 dpm; for inhibition of ^3H-SA binding by unlabeled competitor (in words): large molar excess of unlabeled competitor, recombinant His6-tagged protein; for binding to SABP2 (in words): recombinant, purified SABP2
T4 sequence (Q6RYA0 1-260): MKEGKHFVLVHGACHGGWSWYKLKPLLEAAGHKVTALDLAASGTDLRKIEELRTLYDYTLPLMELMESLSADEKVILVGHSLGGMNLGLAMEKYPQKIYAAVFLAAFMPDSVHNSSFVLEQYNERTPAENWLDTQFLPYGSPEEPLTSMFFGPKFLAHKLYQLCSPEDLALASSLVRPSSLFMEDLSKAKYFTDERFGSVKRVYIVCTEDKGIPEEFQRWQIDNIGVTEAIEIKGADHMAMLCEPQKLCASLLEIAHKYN
Procedure: as §1
Expression of Recombinant SABP2 in E. coli. Full-length tobacco SABP2 was PCR amplified to introduce BamH1 enzyme sites at both ends using the primers F2 ([…]) (SEQ ID NO:51) and F3 ([…]) (SEQ ID NO:52). The amplified product was cloned into the BamH1 site of pET28a (Novagen) and sequenced. Recombinant SABP2 (rSABP2) was synthesized as a soluble protein in E. coli strain BL21 (DE3) and affinity purified by Ni-NTA agarose chromatography (Novagen) as described by the manufacturer. rSABP2 was further purified on a Mono Q column as described earlier.
as §2

[6] = molecular target: T4, SABP2; test: Lipase activity assay of purified recombinant SABP2 (pNP palmitate / pNP myristate) with or without SA; format: biochemical, tobacco; parameters: Full-length tobacco SABP2 was PCR amplified; His6 (N); made in house; host or cells: E. coli BL21 (DE3), vector pET28a
[7] = molecular target: lipase from Mucor meihei (Rhizomucor miehei, UniProt P19515); test: Lipase activity assay with or without SA, control lipase; format: biochemical; conditions: data not shown
Procedure: Since SABP2 contains the catalytic triad and the lipase signature sequence, the recombinant protein was tested for lipase activity. […] Addition of SA to the reaction stimulated lipase activity 3–6 fold (FIG. 6B). This stimulation required SA binding to SABP2, since it was abolished in reaction conditions that prevented SA binding. […] The lipase activity assay was performed as described by Yang et al. with modifications to allow SA binding to SABP2. The standard 1 ml assay mixture consisted of 1 mM substrate in 50 mM Bicine pH 8.0, 0.05% Triton-X100. Following a 60 min preincubation on ice in absence or presence of 1 mM SA, the reaction was allowed to proceed at 24° C. for 60 min. A 100 mM stock solution of p-NPM or p-NPP was prepared in acetonitrile. Lipase activity was estimated colorimetrically (Unicom UV1, Spectronic Unicom, UK) by measuring the liberation of para-nitrophenol from p-NPP or p-NPM at 410 nm. Measurements from control reactions without SABP2 were subtracted from each reaction. For non SA-binding conditions, Tris-HCl pH 8.0 (50 mM) was used in placed of Bicine buffer.

[8] = system: SABP2 expression; test: Induction of SABP2 expression in plants by chemical treatment; format: in vivo, tobacco; conditions: without TMV infection
Excerpt: Expression studies have been initiated and already indicate that the tobacco SABP2 and one of its putative Arabidopsis ortholog, AtSB2L9, are induced in plants resisting infection by viral [tobacco mosaic virus(TMV) or turnip crinkle virus (TCV)] or bacterial (P. s.) pathogens. These studies can be extended to other plant-pathogen interactions, e.g. P. s. pv tabaci, and P.s. pv tomato with or without AvrPto in tomato or Pto-transformed Nicotiana benthamiana, for SABP2 and P. s. and Peronospora parasitica for AtSB2L5, AtSB2L9, and other putative orthologs in Arabidopsis. […] Therefore, induction of SABP2 and its Arabidopsis ortholog(s) by ethylene can be tested in a similar fashion.

[9] = molecular target: T4, SABP2; test: SA / analog binding to SABP2 isolated from tobacco plant extracts; parameters: from tissue; host or cells: tobacco leaves, partially purified extract
Excerpt: (§3) SA is a key component in the signal transduction pathway(s) leading to activation of certain defense responses in plants after pathogen attack. Previous studies have identified several proteins, including catalase and ascorbate peroxidase, through which the SA signal might act. A novel nucleic acid molecule encoding the SA-binding protein 2, SABP2, is described herein. SABP2 was identified through the use of a high specific activity ligand, [^3H]-SA (15–30 Ci/mmole). […] For example, SABP2 is much less abundant in leaf tissue than the catalase, and has an apparent native mass (Mr) of between about 20 and 40 kDa, as compared with the native molecular mass of catalase, which is approximately 240 kDa.
(§4) As one example, assays for SA analogues may be based on the ability of analogues to bind SABP2 or to compete with SA for binding to SABP2. […] Since SABP2 is part of the signal transduction pathway leading to disease resistance, it may be possible to enhance induction of disease resistance using analogues of SA which are not readily metabolized by the plants. […] This glucoside is not active for induction of disease resistance.
(§5) [^3H] […] Bound [^3H]-SA which is present in the flow through, was mixed with 4 ml scintillation cocktail (Ecolite, ICN) and measured in a liquid scintillation counter. […]

[10] = system: SABP2; test: as above; conditions: fold higher
Excerpt: as §3, §4, §5

[11] = molecular target: T4, SABP2; parameters: from tissue; host or cells: tobacco leaves, partially purified extract; conditions: partially purified plant extracts; more avidly than SA (Du and Klessig, 1997); cited from earlier work

lipase from Mucor meihei, sequence (P19515 95-363): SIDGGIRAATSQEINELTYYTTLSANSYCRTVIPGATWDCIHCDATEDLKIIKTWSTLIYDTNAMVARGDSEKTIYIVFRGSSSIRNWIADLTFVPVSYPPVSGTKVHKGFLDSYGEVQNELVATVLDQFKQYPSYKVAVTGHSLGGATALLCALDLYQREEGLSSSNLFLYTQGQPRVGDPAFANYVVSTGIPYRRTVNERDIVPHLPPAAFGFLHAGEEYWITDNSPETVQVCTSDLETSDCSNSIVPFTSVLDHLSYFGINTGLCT

Bound [^3H] SA AtSB2L9 [2] [dpm] | Bound [^3H] SA AtSB2L1 [3] [dpm] | Bound [^3H] SA AtSB2L5 [4] [dpm] | Bound [^3H] SA SABP2 [5] [dpm] | binding to SABP2 (in words) [5] | affinity of SABP2 for BTH relative to SA ([9]; SABP2 isolated from plant extracts, fold greater) | SMILES | Biological Activity of competitor [1] | stimulation of SABP2 lipase activity by SA ([6]; 1 mM SA, 50 mM Bicine pH 8.0, substrates pNP palmitate, pNP myristate) | stimulation of SABP2 lipase activity by SA under conditions that prevent SA binding ([6]; Tris-HCl pH 8.0 (50 mM) in place of Bicine) | stimulation of lipase activity by SA [7] | SA binding to SABP2 in Tris buffer (in words) ([5]; 50 mM bicine replaced with 50 mM Tris-HCl pH 8.0) | inhibition of ^3H-SA binding by unlabeled competitor (in words) [5] | induction of SABP2 expression by treatment alone [8] | pKd ([9]; SABP2 from tobacco, reversible binding, read-out: apparent Kd of SA binding to SABP2) | affinity of SABP2 for SA relative to that between SA and tobacco catalase [10] | binding of BTH to SABP2 relative to SA [11]
42 | 38 | 64 | 260 |  |  | O=C(O)c1cc(Cl)ccc1O [5-CSA, 5-chlorosalicylic acid] | active |  |  |  |  |  |  |  |  | 
 |  |  |  | did not bind | approximately 15 fold | c1ccc2snnc2c1 [BTH, benzothiadiazole] |  |  |  |  |  |  | insufficient |  |  | about 15 fold

Further lines, the molecule ahead of its results:

SMILES | Bound [^3H] SA AtSB2L9 [2] [dpm] | Bound [^3H] SA AtSB2L1 [3] [dpm] | Bound [^3H] SA AtSB2L5 [4] [dpm] | Bound [^3H] SA SABP2 [5] [dpm] | binding to SABP2 (in words) [5] | affinity of SABP2 for BTH relative to SA ([9]; SABP2 isolated from plant extracts, fold greater) | Biological Activity of competitor [1] | stimulation of SABP2 lipase activity by SA ([6]; 1 mM SA, 50 mM Bicine pH 8.0, substrates pNP palmitate, pNP myristate) | stimulation of SABP2 lipase activity by SA under conditions that prevent SA binding ([6]; Tris-HCl pH 8.0 (50 mM) in place of Bicine) | stimulation of lipase activity by SA [7] | SA binding to SABP2 in Tris buffer (in words) ([5]; 50 mM bicine replaced with 50 mM Tris-HCl pH 8.0) | inhibition of ^3H-SA binding by unlabeled competitor (in words) [5] | induction of SABP2 expression by treatment alone [8] | pKd ([9]; SABP2 from tobacco, reversible binding, read-out: apparent Kd of SA binding to SABP2) | affinity of SABP2 for SA relative to that between SA and tobacco catalase [10] | binding of BTH to SABP2 relative to SA [11]
O=C(O)c1c(O)cccc1O [2,6-DHBA, 2,6-dihydroxybenzoic acid] | 1072 | 36 | 1742 | 924 |  |  | active |  |  |  |  |  |  |  |  | 
O=C(O)c1ccccc1O [SA, salicylic acid] | 36 | 42 | 121 | 160 |  |  | active | 3–6 fold | abolished | did not exhibit stimulation | does not bind | inhibited effectively | insufficient | ~7.05 | 100–150 fold | 
O=C(O)c1ccc(O)cc1 [4-HBA, 4-hydroxybenzoic acid] | 3620 | 65 | 4757 | 95634 | only minimal binding |  | inactive |  |  |  |  | not |  |  |  | 
